Patent publication US10981932B2, “Macrocyclic indole derivatives” (Bayer Aktiengesellschaft, priority 2016, dated 2021)
Counter-ions that a name gives are not always drawn. Like-named read-outs stand apart in the source and are kept apart here.

What was measured:
[1] = rcm bond, Grubbs 2nd generation catalyst
[2] = tested on: SUDHL5; test: Induction of cytotoxicity (CellTiter-Glo, 5 h), SUDHL5
[3] = tested on: MV-4-11; test: Anti-proliferative effect (CellTiter-Glo, 72 h), MV-4-11; format: cell-based; settings: MV-4-11 cells, median, read-out: IC50 antiproliferation assay MV-4-11 [M] (median)
In short: (§1)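 Viable cells quantified with CellTiter-Glo after 72 h at 37 °C; rim wells excluded; day 0 plate as baseline.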

[4] = target: MCL-1 (Homo sapiens, UniProt Q07820); test: Protein-protein interaction assay MCL-1/Noxa BH3 peptide (MCL-1 assay), TR-FRET; format: binding; settings: MBP-MCL-1 / Noxa BH3-derived peptide, median
In short: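 Displacement of the biotinylated Noxa BH3 peptide from MBP-tagged human MCL-1 (1 nM) is detected by time-resolved FRET. Compounds are tested in duplicate across eleven concentrations up to 20 μM, incubated 1 h at 22 °C and overnight at 4 °C, and IC50 is fitted with a four-parameter equation.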

[5] = tested on: SUDHL10; test: Induction of caspase-3/7 activity (Caspase-Glo 3/7), SUDHL10; format: cell-based; settings: caspase-3/7 induction, SUDHL10 cells, 3 h treatment, median
In short: (§2)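 Caspase-Glo 3/7 luminescence, 3 h compound exposure, 37 °C, humidified. Minus medium-only blank. EC50 fit: C0=1, plateau = reference max induction.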

[6] = tested on: OPM2; test: Anti-proliferative effect (CellTiter-Glo, 72 h), OPM2; format: cell-based; settings: OPM2 cells, median, read-out: IC50 antiproliferation assay OPM2 [M] (median)
In short: as §1

[7] = tested on: SUDHL5; test: Induction of caspase-3/7 activity (Caspase-Glo 3/7), SUDHL5; format: cell-based; settings: caspase-3/7 induction, SUDHL5 cells, 3 h treatment, median
In short: as §2

[8] = tested on: SUDHL10; test: Anti-proliferative effect (CellTiter-Glo, 72 h), SUDHL10; format: cell-based; settings: SUDHL10 cells, antiproliferation, 72 h incubation, median, read-out: Antiproli SUDHL10 [M] (median)
In short: as §1

[9] = tested on: A2780; test: Anti-proliferative effect (CellTiter-Glo, 72 h), A2780; format: cell-based; settings: A2780 cells, median, read-out: IC50 antiproliferation assay A2780 [M] (median)
In short: as §1

[10] = tested on: SUDHL10; test: Induction of cytotoxicity (CellTiter-Glo, 5 h), SUDHL10
[11] = tested on: SUDHL5; test: Anti-proliferative effect (CellTiter-Glo, 72 h), SUDHL5; format: cell-based; settings: SUDHL5 cells, antiproliferation, 72 h incubation, median, read-out: Antiproli SUDHL5 [M] (median)
In short: as §1

[12] = read-out: Cytotox SUDHL5 [M] (median), SUDHL5 cells, cytotoxicity induction, CellTiter-Glo, 5 h incubation, median
[13] = read-out: Cytotox SUDHL10 [M] (median), SUDHL10 cells, cytotoxicity induction, CellTiter-Glo, 5 h incubation, median

Chain of MCL-1 (Q07820 whole entry): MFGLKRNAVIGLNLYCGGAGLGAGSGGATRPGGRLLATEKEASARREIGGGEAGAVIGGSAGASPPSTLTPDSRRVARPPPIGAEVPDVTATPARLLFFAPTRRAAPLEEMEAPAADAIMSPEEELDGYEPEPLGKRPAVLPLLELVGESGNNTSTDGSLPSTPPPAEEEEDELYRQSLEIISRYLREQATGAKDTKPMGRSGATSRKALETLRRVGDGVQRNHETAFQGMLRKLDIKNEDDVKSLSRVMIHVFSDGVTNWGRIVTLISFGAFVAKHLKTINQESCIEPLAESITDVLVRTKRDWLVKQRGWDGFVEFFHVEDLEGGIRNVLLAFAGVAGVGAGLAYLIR

Q: Which ring closure, yield of all isomers ([1]; from C=CCN(Cc1ccccc1)c1c(-c2cccc3c(CCCOc4cccc5ccccc45)c(C(=O)OCC)n(CC=C)c23)c(C)nn1C, toluene, 6.11 mM, 90.0 °C, 5.5 h) does the source give for `CCOC(=O)c1c(CCCOc2cccc3ccccc23)c2cccc3c2n1CC=CCN(Cc1ccccc1)c1c-3c(C)nn1C` here?
A: The ring closure, yield of all isomers was 96.7%.

Q: Which ring closure, yield of all isomers ([1]; from C=CCOCc1c(-c2cccc3c(CCCOc4cccc5ccccc45)c(C(=O)OCC)n(CC=C)c23)c(COC(C)C)nn1C, dichloromethane, 77.5 mM, 25.0 °C, 24.0 h) does the source give for `CCOC(=O)c1c(CCCOc2cccc3ccccc23)c2cccc3c2n1CC=CCOCc1c-3c(COC(C)C)nn1C` here?
A: The ring closure, yield of all isomers was 89.2%.

Q: With `CCOC(=O)c1c(CCCO[Si](C)(C)C(C)(C)C)c2cccc3c2n1CC=CCOCc1c-3c(C)nn1C` (mixture of isomers) as the compound, how does the ring closure, yield of all isomers ([1]; from C=CCOCc1c(-c2cccc3c(CCCO[Si](C)(C)C(C)(C)C)c(C(=O)OCC)n(CC=C)c23)c(C)nn1C, dichloromethane, 48.0 mM, 25.0 °C, 16.0 h) read?
A: Its ring closure, yield of all isomers is 52.7%.

Q: With `CCOC(=O)c1c(CCCOc2cccc3ccccc23)c2cccc3c2n1CC=CCOCCc1c-3c(C)nn1C` (mixture of isomers) as the compound, how does the ring closure, yield of all isomers ([1]; from C=CCOCCc1c(-c2cccc3c(CCCOc4cccc5ccccc45)c(C(=O)OCC)n(CC=C)c23)c(C)nn1C, dichloromethane, 50.9 mM, 25.0 °C, 48.0 h) read?
A: The ring closure, yield of all isomers was 47.5%.

Q: For `CCOC(=O)c1c(CCCOc2cccc3ccccc23)c2cccc3c2n1CC=CCOCc1c-3c(CN2CCOCC2)nn1C` (mixture of isomers), which ring closure, yield of all isomers ([1]; from C=CCOCc1c(-c2cccc3c(CCCOc4cccc5ccccc45)c(C(=O)OCC)n(CC=C)c23)c(CN2CCOCC2)nn1C, dichloromethane, 79.5 mM, 25.0 °C, 48.0 h) is on record?
A: The ring closure, yield of all isomers was 14.2%.

Q: Which ring closure, yield of all isomers ([1]; from C=CCOCc1c(-c2cccc3c(CCCOc4cccc5ccccc45)c(C(=O)OCC)n(CC=C)c23)c(COCc2ccccc2)nn1C, dichloromethane, 76.8 mM, 25.0 °C, 72.0 h) does the source give for `CCOC(=O)c1c(CCCOc2cccc3ccccc23)c2cccc3c2n1CC=CCOCc1c-3c(COCc2ccccc2)nn1C` (mixture of isomers) here?
A: Its ring closure, yield of all isomers is 74.2%.

Q: For `CCOC(=O)c1c(CCCOc2cccc3ccccc23)c2cccc3c2n1CC=CCOCc1c-3c(COc2ccc(C3(O)CCOCC3)cc2)nn1C` (mixture of isomers), which ring closure, yield of all isomers ([1]; from C=CCOCc1c(-c2cccc3c(CCCOc4cccc5ccccc45)c(C(=O)OCC)n(CC=C)c23)c(COc2ccc(C3(O)CCOCC3)cc2)nn1C, dichloromethane, 80.0 mM, 25.0 °C, 72.0 h) is on record?
A: Its ring closure, yield of all isomers is 66.1%.

Q: Which ring closure, yield of all isomers ([1]; from C=CCOCc1c(-c2cccc3c(CCCOc4cccc5ccccc45)c(C(=O)OCC)n(CC=C)c23)c(COc2ccc(C3(OC)CCOCC3)cc2)nn1C, dichloromethane, 78.4 mM, 25.0 °C, 72.0 h) does the source give for `CCOC(=O)c1c(CCCOc2cccc3ccccc23)c2cccc3c2n1CC=CCOCc1c-3c(COc2ccc(C3(OC)CCOCC3)cc2)nn1C` (mixture of isomers) here?
A: Its ring closure, yield of all isomers is 39.1%.

Q: With `CCOC(=O)c1c(CCCOc2cccc3ccccc23)c2cccc3c2n1CC=CCOCc1c-3c(COc2ccc(N3CCOCC3)cc2)nn1C` (mixture of isomers) as the compound, how does the ring closure, yield of all isomers ([1]; from C=CCOCc1c(-c2cccc3c(CCCOc4cccc5ccccc45)c(C(=O)OCC)n(CC=C)c23)c(COc2ccc(N3CCOCC3)cc2)nn1C, dichloromethane, 39.1 mM, 25.0 °C, 44.0 h) read?
A: Its ring closure, yield of all isomers is 53.3%.

Q: For `CCOC(=O)c1c(CCCOc2cccc3ccccc23)c2cccc3c2n1CC=CCOCc1c-3c(COc2ccccc2)nn1C` (mixture of isomers), which ring closure, yield of all isomers ([1]; from C=CCOCc1c(-c2cccc3c(CCCOc4cccc5ccccc45)c(C(=O)OCC)n(CC=C)c23)c(COc2ccccc2)nn1C, dichloromethane, 78.3 mM, 25.0 °C, 24.0 h) is on record?
A: Its ring closure, yield of all isomers is 56.9%.

Q: For `CCOC(=O)c1c(CCCOc2cccc3ccccc23)c2cccc3c2n1CC=CCOCc1c-3cnn1C` (mixture of isomers), which ring closure, yield of all isomers ([1]; from C=CCOCc1c(-c2cccc3c(CCCOc4cccc5ccccc45)c(C(=O)OCC)n(CC=C)c23)cnn1C, dichloromethane, 78.2 mM, 25.0 °C, 24.0 h) is on record?
A: The ring closure, yield of all isomers was 42.1%.

Q: With `CCOC(=O)c1c(CCCOc2cccc3ccccc23)c2cccc3c2n1CC=CCOCc1nn(C)c(C)c1-3` (mixture of isomers) as the compound, how does the ring closure, yield of all isomers ([1]; from C=CCOCc1nn(C)c(C)c1-c1cccc2c(CCCOc3cccc4ccccc34)c(C(=O)OCC)n(CC=C)c12, dichloromethane, 77.8 mM, 25.0 °C, 16.0 h) read?
A: The ring closure, yield of all isomers was 15%.

Q: For `CCOCc1nn(C)c2c1-c1cccc3c(CCCOc4cccc5ccccc45)c(C(=O)OCC)n(c13)CC=CCOC2` (mixture of isomers), which ring closure, yield of all isomers ([1]; from C=CCOCc1c(-c2cccc3c(CCCOc4cccc5ccccc45)c(C(=O)OCC)n(CC=C)c23)c(COCC)nn1C, dichloromethane, 76.0 mM, 25.0 °C, 24.0 h) is on record?
A: Its ring closure, yield of all isomers is 47.3%.

Q: For `Cn1nc(COc2ccc(N3CCOCC3)cc2)c2c1COCC=CCn1c(C(=O)O)c(CCCOc3cccc4ccccc34)c3cccc-2c31` (single isomer, unassigned; enantiomer 2) [Example 120, (−)-(E/Z)-1-methyl-3-{[4-(morpholin-4-yl)phenoxy]methyl}-7-[3-(naphthalen-1-yloxy)propyl]-1,10,13,15-tetrahydropyrazolo[4′,3′:9,10][1,6]oxazacycloundecino[8,7,6-hi]indole-8-carboxylic Acid (Enantiomer 2)], which IC50 [2, 12] is on record?
A: The IC50 was 3.21e-05 M.

Q: What about the IC50 [3] of the same compound?
A: The IC50 was 1.13e-05 M.

Q: And the IC50 [4]?
A: The IC50 was 0.0272 µM.

Q: What about the EC50 [5] of the same compound?
A: The EC50 was 18.4 µM.

Q: And the IC50 [6]?
A: The IC50 was 4.36e-06 M.

Q: What about the EC50 [7] of the same compound?
A: Its EC50 is 31.4 µM.

Q: And the IC50 [8]?
A: Its IC50 is 1.4e-05 M.

Q: And the IC50 [9]?
A: Its IC50 is 1.11e-05 M.

Q: And the IC50 [10, 13]?
A: Its IC50 is greater than 3.3e-05 M.

Q: And the IC50 [11]?
A: The IC50 was 1.08e-05 M.

Q: With `CN1CCCn2c(C(=O)O)c(CCCOc3cccc4ccccc34)c3cccc(c32)-c2c(CNCC(F)(F)F)nn(C)c2C1` (single isomer, unassigned; enantiomer 2) [Example 131, 7,9-dimethyl-1-[3-(naphthalen-1-yloxy)propyl]-11-{[(2,2,2-trifluoroethyl)amino]methyl}-4,5,6,7,8,9-hexahydropyrazolo[3′,4′:7,8][1,5]diazecino[9,10,1-hi]indole-2-carboxylic acid-N-ethylethanamine Salt (Enantiomer 2)] as the compound, how does the IC50 [2, 12] read?
A: Its IC50 is 1.46e-05 M.

Q: What about the IC50 ([3]; Homo sapiens, MV4-11, 72 h) of the same compound?
A: Its IC50 is 6.24e-06 M.

Q: What about the IC50 [4] of the same compound?
A: The IC50 was 0.0191 µM.

Q: And the EC50 [5]?
A: Its EC50 is 30.9 µM.

Q: And the IC50 [6]?
A: The IC50 was 1.71e-05 M.

Q: And the EC50 [7]?
A: The EC50 was 25.9 µM.

Q: What about the IC50 [8] of the same compound?
A: The IC50 was 1.16e-05 M.

Q: What about the IC50 [9] of the same compound?
A: Its IC50 is 1.48e-05 M.

Q: And the IC50 [10, 13]?
A: Its IC50 is 2.88e-05 M.

Q: What about the IC50 [11] of the same compound?
A: Its IC50 is 1.17e-05 M.

Q: For `Cn1nc(CN2CCOCC2)c2c1COCCCCn1c(C(=O)O)c(CCCOc3cccc4ccccc34)c3cccc-2c31` (single isomer, unassigned; enantiomer 2) [Example 137, 1-methyl-3-(morpholin-4-ylmethyl)-7-[3-(naphthalen-1-yloxy)propyl]-1,10,11,12,13,15-hexahydropyrazolo[4′,3′:9,10][1,6]oxazacycloundecino[8,7,6-hi]indole-8-carboxylic Acid (Enantiomer 2)], which IC50 ([2]; Homo sapiens, SU-DHL-5, 5 h, read-out: Cytotox SUDHL5 [M] (median), SUDHL5 cells, cytotoxicity induction, CellTiter-Glo, 5 h incubation, median) is on record?
A: The IC50 was 8.98e-06 M.

Q: What about the IC50 ([3]; Homo sapiens, MV4-11, 72 h) of the same compound?
A: Its IC50 is 6.78e-06 M.

Q: And the IC50 [4]?
A: Its IC50 is 0.0107 µM.

Q: What about the EC50 ([5]; Homo sapiens, SU-DHL10, 3 h) of the same compound?
A: The EC50 was 22.1 µM.

Q: And the IC50 ([6]; Homo sapiens, OPM-2, 72 h)?
A: The IC50 was greater than 3.3e-05 M.

Q: And the EC50 ([7]; Homo sapiens, SU-DHL-5, 3 h)?
A: Its EC50 is 12.9 µM.

Q: What about the IC50 ([8]; Homo sapiens, SU-DHL10, 72 h) of the same compound?
A: Its IC50 is 5.9e-06 M.

Q: And the IC50 ([9]; Homo sapiens, A2780, 72 h)?
A: The IC50 was greater than 3.3e-05 M.

Q: What about the IC50 ([10]; Homo sapiens, SU-DHL10, 5 h, read-out: Cytotox SUDHL10 [M] (median), SUDHL10 cells, cytotoxicity induction, CellTiter-Glo, 5 h incubation, median) of the same compound?
A: Its IC50 is 3.06e-05 M.

Q: And the IC50 ([11]; Homo sapiens, SU-DHL-5, 72 h)?
A: The IC50 was 2.67e-06 M.
